We go through three compounds from patent US7820645B2, “Crystalline forms” (AstraZeneca AB, priority 2006, dated 2010).

Data set [1] in a line: Solubility in organic solvents (gravimetric, saturated solution from one-day slurry). In kind it is physicochemical. Conditions: for solubility at 1 day: organic solvent or mixture, thermodynamic from solid, 22° C. As to the method: An excess of Compound A from Example 3 above was slurried in ethyl acetate for one day. A proportion of the saturated solution was then withdrawn through a 0.5 micrometer filter to a pre-weighted E-flask. The E-flask was weighed and then opened & evaporated in air, and then dried in vacuum at 40° C. until the weight was constant. The weight of the solution, the weight of dry substance, the weight of solvent and the volume of solvent were determined (using the density of ethyl acetate at 22° C.=0.90 g/ml).
An excess of Compound B from Example 2 above was slurried in isopropanol for one day in a closed vessel. A proportion of the saturated solution was then withdrawn through a 0.5 micrometer filter to a pre-weighted E-flask. The E-flask was weighed and then opened & evaporated in air, and then dried in vacuum at 70° C. until the weight was constant. The weight of the solution, the weight of dry substance, the weight of solvent and the volume of solvent were determined (using the density of isopropanol at 22° C.=0.79 g/ml).
An excess of Compound A from Example 6 above was slurried in isopropanol for one day in a closed vessel. A proportion of the saturated solution was then withdrawn through a 0.5 micrometer filter to a pre-weighted E-flask. The E-flask was weighed and then opened & evaporated in air, and then dried in vacuum at 70° C. until the weight was constant. The weight of the solution, the weight of dry substance, the weight of solvent and the volume of solvent were determined (using the density of isopropanol at 22° C.=0.79 g/ml).
An excess of Compound A from Example 6 above was slurried in ethanol for one day in a closed vessel. A proportion of the saturated solution was then withdrawn through a 0.5 micrometer filter to a pre-weighed E-flask. The E-flask was weighed and then opened and evaporated in air, and then dried in vacuum at 40-50° C. until the weight was constant. The weight of the solution, the weight of dry substance, the weight of solvent and the volume of solvent were determined (using the density of ethanol at 22° C.=0.79 g/ml).
An excess of Compound A from Example 6 above was slurried in methanol for one day in a closed vessel. A proportion of the saturated solution was then withdrawn through a 0.5 micrometer filter to a pre-weighted E-flask. The E-flask was weighed and then opened & evaporated in air, and then dried in vacuum at 40-50° C. until the weight was constant. The weight of the solution, the weight of dry substance, the weight of solvent and the volume of solvent were determined (using the density of methanol at 22° C.=0.79 g/ml).
An excess of Compound A from Example 6 above was slurried in acetone for one day in a closed vessel. A proportion of the saturated solution was then withdrawn through a 0.5 micrometer filter to a pre-weighted E-flask. The E-flask was weighed and then opened & evaporated in air, and then dried in vacuum at 70° C. until the weight was constant. The weight of the solution, the weight of dry substance, the weight of solvent and the volume of solvent were determined (using the density of acetone at 22° C.=0.82 g/ml).

Data set [2] deals with T1, thrombin (Homo sapiens, UniProt P00734). Conditions: Test A of WO 02/44145; disclosed in Example 46 of WO 02/44145; cited from earlier work.
Data set [3] concerns the target T1, thrombin. The conditions noted are these: Test D of WO 02/44145; disclosed in Example 47 of WO 02/44145; cited from earlier work.
Setting [4] is: isopropanol, Compound B from Example 2 or Compound A anhydrate from Example 6.
The mark [5] stands for this setting: isopropanol, Compound B from Example 2 or Compound A anhydrate from Example 6, read-out: solubility (mg per ml isopropanol).

Each structure is given as a SMILES string. ≈ marks a conversion by molar mass, not a printed value. Read-outs that look alike come from different tables or passages of the source.

For the compound `N/C(=N\O)c1ccc(CNC(=O)[C@@H]2CCN2C(=O)[C@H](O)c2cc(Cl)cc(OC(F)F)c2)cc1` [Compound B, Ph(3-Cl)(5-OCHF2)—(R)CH(OH)C(O)-Aze-Pab(OH)], the “solubility as weight %” value in data set [1] (setting [4]) worked out at 0.4 % w/w. The solubility at 1 day in data set [1] (setting [5]) came to 3 mg/mL (≈ 6.21 mM).

For the compound `CO/N=C(\N)c1ccc(CNC(=O)[C@@H]2CCN2C(=O)[C@H](O)c2cc(Cl)cc(OC(F)F)c2)cc1` [Compound A, Ph(3-Cl)(5-OCHF2)—(R)CH(OH)C(O)-Aze-Pab(OMe)], the “solubility as weight %” value in data set [1] (acetone, Compound A from Example 6) is 33 % w/w; in data set [1] (ethanol, Compound A from Example 6) it was 10 % w/w; in data set [1] (ethyl acetate, Compound A from Example 3), 4 % w/w; in data set [1] (setting [4]) it was 2 % w/w; in data set [1] (methanol, Compound A from Example 6), 45 % w/w. Besides, the solubility at 1 day in data set [1] (acetone, Compound A from Example 6, read-out: solubility (mg per ml acetone)) turned out to be 398 mg/mL (≈ 801 mM); in data set [1] (ethanol, Compound A from Example 6, read-out: solubility (mg per ml ethanol)) it was 87 mg/mL (≈ 175 mM); in data set [1] (ethyl acetate, Compound A from Example 3, read-out: solubility (mg per ml ethyl acetate)) it was 36 mg/mL (≈ 72.4 mM); in data set [1] (setting [5]), 15 mg/mL (≈ 30.2 mM); in data set [1] (methanol, Compound A from Example 6, read-out: solubility (mg per ml methanol)) it was 655 mg/mL (≈ 1320 mM).

Consider `N=C(N)c1ccc(CNC(=O)[C@@H]2CCN2C(=O)[C@H](O)c2cc(Cl)cc(OC(F)F)c2)cc1` [Compound C], for which the IC50 on thrombin [2] is below 20 nM; on thrombin [3] it was below 1000 nM.
